Assay results from US8530493B2, “Indolopyridines as Eg5 kinesin modulators” (4SC AG, priority 2006, dated 2013).

These compounds were tested on RKO p21 uninduced (proliferating) colon adenocarcinoma cells (assay: Alamar Blue cell viability assay, RKO p21 uninduced (proliferating)). Settings: Homo sapiens, Table B3, anti-proliferative/cytotoxic activity, 72 hours, read-out: −log EC50 RKO p21 uninduced (proliferating) (converted).
Format: cell-based
How it was run: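 RKO p21 or p27 subclones grown without Ponasterone A, i.e. proliferating, exposed 24 h after seeding to semi-log compound dilutions in DMEM/10% FCS (1% DMSO controls) for 72 h at 37° C. Alamar Blue fluorescence (544/590 nm) read relative to untreated cells; EC50 from dose-response curves, given as −log EC50 (mol/l).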

CCN(CCCN1C(=O)N2[C@H](c3cccc(O)c3)c3[nH]c4cc(F)c(Cl)cc4c3C[C@@]2(C)C1=O)CCOC (racemic) [Example 471, (3aSR,10RS)-6-Chloro-2-{3-[ethyl-(2-methoxy-ethyl)-amino]-propyl}-7-fluoro-10-(3-hydroxy-phenyl)-3a-methyl-3a,4,9,10-tetrahydro-2,9,10a-triaza-cyclopenta[b]fluorene-1,3-dione] and CC(C)N(C)CCCN1C(=O)N2[C@H](c3cccc(O)c3)c3[nH]c4cc(F)c(Cl)cc4c3C[C@@]2(C)C1=O (racemic) [Example 474, (3aSR,10RS)-6-Chloro-7-fluoro-10-(3-hydroxy-phenyl)-2-[3-(isopropyl-methyl-amino)-propyl]-3a-methyl-3a,4,9,10-tetrahydro-2,9,10a-triaza-cyclopenta[b]fluorene-1,3-dione] cannot be ordered by EC50: 39.8 to 251 nM for the first, ≤ 39.8 nM for the second.

C=CCN(C)CCCN1C(=O)N2[C@H](c3cccc(O)c3)c3[nH]c4cc(F)c(Cl)cc4c3C[C@@]2(C)C1=O (racemic) [Example 472, (3aSR,10RS)-2-[3-(Allyl-methyl-amino)-propyl]-6-chloro-7-fluoro-10-(3-hydroyx-phenyl)-3a-methyl-3a,4,9,10-tetrahydro-2,9,10a-triaza-cyclopenta[b]fluorene-1,3-dione] and C[C@@]12Cc3c([nH]c4cc(F)c(Cl)cc34)[C@@H](c3cccc(O)c3)N1C(=O)N(CCCN1CCCC1)C2=O (racemic) [Example 476, (3aSR,10RS)-6-Chloro-7-fluoro-10-(3-hydroxy-phenyl)-3a-methyl-2-(3-pyrrolidin-1-yl-propyl)-3a,4,9,10-tetrahydro-2,9,10a-triaza-cyclopenta[b]fluorene-1,3-dione] cannot be ordered by EC50: 39.8 to 251 nM for the first, ≤ 39.8 nM for the second.

C[C@@]12Cc3c([nH]c4cc(F)c(Cl)cc34)[C@@H](c3cccc(O)c3)N1C(=O)N(CCCN1CCOCC1)C2=O (racemic) [Example 475, (3aSR,10RS)-6-Chloro-7-fluoro-10-(3-hydroxy-phenyl)-3a-methyl-2-(3-morpholin-4-yl-propyl)-3a,4,9,10-tetrahydro-2,9,10a-triaza-cyclopenta[b]fluorene-1,3-dione] and C[C@@]12Cc3c([nH]c4cc(F)c(Cl)cc34)[C@@H](c3cccc(O)c3)N1C(=O)N(CCCN1CCCCC1)C2=O (racemic) [Example 478, (3aSR,10RS)-6-Chloro-7-fluoro-10-(3-hydroxy-phenyl)-3a-methyl-2-(3-piperidin-1-yl-propyl)-3a,4,9,10-tetrahydro-2,9,10a-triaza-cyclopenta[b]fluorene-1,3-dione] cannot be ordered by EC50: 39.8 to 251 nM for the first, ≤ 39.8 nM for the second.

C[C@@]12Cc3c([nH]c4cc(F)c(Cl)cc34)[C@@H](c3cccc(O)c3)N1C(=O)N(CCCN1CC=CC1)C2=O (racemic) [Example 477, (3aSR,10RS)-6-Chloro-2-[3-(2,5-dihydro-pyrrol-1-yl)-propyl]-7-fluoro-10-(3-hydroxy-phenyl)-3a-methyl-3a,4,9,10-tetrahydro-2,9,10a-triaza-cyclopenta[b]fluorene-1,3-dione] and C[C@@]12Cc3c([nH]c4cc(F)c(Cl)cc34)[C@@H](c3cccc(O)c3)N1C(=O)N(CCCN1CC=CCC1)C2=O (racemic) [Example 480, (3aSR,10RS)-6-Chloro-2-[3-(3,6-dihydro-2H-pyridin-1-yl)-propyl]-7-fluoro-10-(3-hydroxy-phenyl)-3a-methyl-3a,4,9,10-tetrahydro-2,9,10a-triaza-cyclopenta[b]fluorene-1,3-dione] fall in the same range of EC50: 39.8 to 251 nM for the first, 39.8 to 251 nM for the second.

CC1CCN(CCCN2C(=O)N3[C@H](c4cccc(O)c4)c4[nH]c5cc(F)c(Cl)cc5c4C[C@@]3(C)C2=O)CC1 (racemic) [Example 479, (3aSR,10RS)-6-Chloro-7-fluoro-10-(3-hydroxy-phenyl)-3a-methyl-2-[3-(4-methyl-piperidin-1-yl)-propyl]-3a,4,9,10-tetrahydro-2,9,10a-triaza-cyclopenta[b]fluorene-1,3-dione] and CN1CCN(CCCN2C(=O)N3[C@H](c4cccc(O)c4)c4[nH]c5cc(F)c(Cl)cc5c4C[C@@]3(C)C2=O)CC1 (racemic) [Example 481, (3aSR,10RS)-6-Chloro-7-fluoro-10-(3-hydroxy-phenyl)-3a-methyl-2-[3-(4-methyl-piperazin-1-yl)-propyl]-3a,4,9,10-tetrahydro-2,9,10a-triaza-cyclopenta[b]fluorene-1,3-dione] fall in the same range of EC50: 39.8 to 251 nM for the first, 39.8 to 251 nM for the second.

CC(=O)N1CCN(CCCN2C(=O)N3[C@H](c4cccc(O)c4)c4[nH]c5cc(F)c(Cl)cc5c4C[C@@]3(C)C2=O)CC1 (racemic) [Example 482, (3aSR,10RS)-2-[3-(4-Acetyl-piperazin-1-yl)-propyl]-6-chloro-7-fluoro-10-(3-hydroxy-phenyl)-3a-methyl-3a,4,9,10-tetrahydro-2,9,10a-triaza-cyclopenta[b]fluorene-1,3-dione] and C[C@@]12Cc3c([nH]c4cc(F)c(Cl)cc34)[C@@H](c3cccc(O)c3)N1C(=O)N(CCCN1CCCCCC1)C2=O (racemic) [Example 483, (3aSR,10RS)-2-(3-Azepan-1-yl-propyl)-6-chloro-7-fluoro-10-(3-hydroyx-phenyl)-3a-methyl-3a,4,9,10-tetrahydro-2,9,10a-triaza-cyclopenta[b]fluorene-1,3-dione] fall in the same range of EC50: 39.8 to 251 nM for the first, 39.8 to 251 nM for the second.

COc1ccc2[nH]c3c(c2c1)C[C@@]1(C)C(=O)N(CCCCl)C(=O)N1[C@@H]3c1cccc(O)c1 [Example 55a, (3aS,10R)-2-(3-Chloro-propyl)-10-(3-hydroxy-phenyl)-6-methoxy-3a-methyl-3a,4,9,10-tetrahydro-2,9,10a-triaza-cyclopenta[b]fluorene-1,3-dione] and C=CCNCCCN1C(=O)N2[C@H](c3cccc(O)c3)c3[nH]c4ccc(OC)cc4c3C[C@@]2(C)C1=O [Example 533, (3aS,10R)-2-(3-Allylamino-propyl)-10-(3-hydroxy-phenyl)-6-methoxy-3a-methyl-3a,4,9,10-tetrahydro-2,9,10a-triaza-cyclopenta[b]fluorene-1,3-dione] cannot be ordered by EC50: 39.8 to 251 nM for the first, ≤ 39.8 nM for the second.

COc1cc2c3c([nH]c2cc1F)[C@@H](c1cccc(O)c1)N1C(=O)N(CCNCCO)C(=O)[C@]1(C)C3 [Example 245, (3aS,10R)-7-Fluoro-2-[2-(2-hydroxy-ethylamino)-ethyl]-10-(3-hydroxy-phenyl)-6-methoxy-3a-methyl-3a,4,9,10-tetrahydro-2,9,10a-triaza-cyclopenta[b]fluorene-1,3-dione] and COc1cc2c3c([nH]c2cc1F)[C@@H](c1cccc(O)c1)N1C(=O)N(CCN(C)CCO)C(=O)[C@]1(C)C3 [Example 246, (3aS,10R)-7-Fluoro-2-{2-[(2-hydroxy-ethyl)-methyl-amino]-ethyl}-10-(3-hydroxy-phenyl)-6-methoxy-3a-methyl-3a,4,9,10-tetrahydro-2,9,10a-triaza-cyclopenta[b]fluorene-1,3-dione] fall in the same range of EC50: 39.8 to 251 nM for the first, 39.8 to 251 nM for the second.

For COCCNCCCN1C(=O)N2[C@H](c3cccc(O)c3)c3[nH]c4ccc(OC)cc4c3C[C@@]2(C)C1=O [Example 490, (3aS,10R)-10-(3-Hydroxy-phenyl)-6-methoxy-2-[3-(2-methoxy-ethylamino)-propyl]-3a-methyl-3a,4,9,10-tetrahydro-2,9,10a-triaza-cyclopenta[b]fluorene-1,3-dione], the EC50 was ≤ 39.8 nM.
